# Patent US20230022705A1, “Topical Delivery System Containing Cellulose Nanofibers” (ELC Management LLC, priority 2019, published 2023)
# Where two headings read alike, the source gives them in different places.
# Tested on: MatTek 300 skin (a skin model constructed from live cells)
# Assay: Penetration study using MatTek skin, formulation with vs without cellulose nanofibers, UPLC analysis
# Format: in vitro ADME
# Procedure: A testing formulation with and without nanocellulose and various skin care actives was prepared. The formulation was prepared by mixing the Phase I components until all of the solids were dissolved (e.g., about 10-15 min). The Phase 2 components were added to the Phase 1 components and mixed until lump free (e.g., about 10 min). The Phase 3 components were pre-mixed until lump free and slowly added to the initial mixture and mixed until uniform (e.g., about 30 min). The Phase 4 components were mixed until uniform and slowly added to the initial mixture and mixed to uniformity (e.g., about 15-20 min). The Phase 5 components were premixed and then added to the mixture and mixed until uniform (e.g., about 15-20 min). The Phase 6 components were added to the mixture under Silverson to adjust the pH to about 5.5 to 6.5 to increase the stability of the AA2G and mixed until lump free (e.g., about 15-20 min). A penetration study was then performed using the base formula without nanocellulose as a control. […] In a 6-well plate, MatTek 300 skin (a skin model constructed from live cells, obtained from MatTek) was placed in the well with 2.00 mL of incubation medium (also provided by MatTek). The medium was removed, and 2.0 mL of phosphate buffer saline/propandiol (PBS/PPD) 1:1 mixture was added. The PBS/PPD mixture was then removed. This washing process was repeated twice. Then 2.0 mL of the PBS/PPD mixture was added as the collection phase. To the top of each skin, 400 μl of a sample was loaded. The skin was then incubated at 37° C. for 72 hours. Finally, the PBS/PPD collection phase was filtered through 0.45 μm PTFE syringe filter into high performance liquid chromatography (HPLC) vials. Waters ACQUITY H ultra-performance liquid chromatography (UPLC) was used to analyze the collected samples from the penetration study.
smiles,measurement,setting,value
O=C(c1ccccc1)c1ccccc1 [benzophenone],"penetration efficacy, composition with nanocellulose vs without (in words)","benzophenone 4% (w/w of the total composition), sunscreen formulations",directionally reduced
COc1ccc(CCCc2ccc(O)cc2O)c(OC)c1C [UP302],"penetration efficacy, formulation with cellulose nanofibers vs without (in words)","MatTek 300 skin, 37° C., 72 hours, PBS/PPD collection phase","modulated, reduced, and limited"
"O=C1O[C@H]([C@@H](O)CO)C(O)=C1O[C@H]1O[C@H](CO)[C@@H](O)[C@H](O)[C@H]1O [AA2G, ascorbic acid 2-glucoside]","penetration efficacy, formulation with cellulose nanofibers vs without (in words)",,significantly enhanced
"CC1=C(/C=C/C(C)=C/C=C/C(C)=C/CO)C(C)(C)CCC1 [Retinol, reference compound]","penetration within the skin, composition with nanocellulose vs without (in words)",,reduced
same,rate of release from composition with nanocellulose (in words),,slower rate of release
OCCOc1ccccc1 [phenoxyethanol],"penetration efficacy, composition with nanocellulose vs without (in words)",,not increased
